According to the supplement of paper PMC10307832:

Compound: CCN1CCC(CC1)N2C=C(N=N2)CNC3=CC4=C(C(=CN=C4C(=C3)Cl)C#N)NC5=CC(=C(C=C5)F)Cl [KIN001-266]
Experiment: relative viability (nuclei count vs DMSO), 5 days (fraction); higher = more cells survive
Procedure, shortened: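 Hoechst staining, done together with fixation and permeabilisation, marked nuclei for 4× imaging and MetaXpress counting. This followed 5 days without medium change after lung cancer cell lines, kept overnight at 37 °C in 1536-well plates, were pinned with five library-drug doses (not always all listed) spaced by √10 on vehicle-anchored plates. Viability is the ratio of treated-well to vehicle-well nuclei, expressed as a median across plates. Plates passed only at control CV below 25% with at least one doubling.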

Cell Line | relative viability (0.08 µM) | relative viability (0.253 µM) | relative viability (0.8 µM) | relative viability (2.53 µM) | relative viability (8 µM)
201T | 1.02 | 1 | 0.959 | 0.995 | 0.956
A-427 | 1.04 | 1.06 | 1.05 | 0.928 | 0.953
ABC-1 | 1.03 | 1.11 | 1.12 | 0.959 | 0.774
BEN | 0.991 | 0.931 | 1.06 | 0.864 | 0.996
CAL-12T | 1.07 | 0.965 | 0.956 | 1.09 | 0.994
COR-L23 | 1 | 0.984 | 1.02 | 0.983 | 0.828
COR-L 105 | 0.942 | 0.967 | 0.963 | 1 | 0.902
Calu-6 | 0.995 | 1.04 | 1.02 | 0.969 | 0.798
ChaGo-K-1 | 1.04 | 1.03 | 0.92 | 0.929 | 0.886
EKVX | 0.989 | 1 | 0.841 | 0.868 | 0.941
EMC-BAC-2 | 1.07 | 1.21 | 0.98 | 1.07 | 0.989
EPLC-272H | 1.08 | 1 | 0.915 | 0.893 | 0.686
H3255 | 1.01 | 1.06 | 0.96 | 0.96 | 0.78
HARA | 0.959 | 1.04 | 0.937 | 1.06 | 0.747
HCC-15 | 1.02 | 1.03 | 0.875 | 0.868 | 0.689
HCC-44 | 0.967 | 0.994 | 0.983 | 0.968 | 1.08
HCC-78 | 0.964 | 0.998 | 0.913 | 0.99 | 0.956
HCC-366 | 1.02 | 1.01 | 0.992 | 1.01 | 0.969
HCC-827 | 1.03 | 1.05 | 0.715 | 1.08 | 0.98
HOP-62 | 1.01 | 1.05 | 1.02 | 1.02 | 0.995
IA-LM | 0.95 | 0.956 | 0.888 | 1 | 0.931
LC-2-ad | 1.05 | 0.997 | 0.947 | 1.04 | 0.962
LCLC-97TM1 | 0.942 | 0.853 | 0.917 | 0.866 | 0.906
LCLC-103H | 1.08 | 1.04 | 1.08 | 1.06 | 1.02
LK-2 | 1.14 | 0.885 | 1.2 | 0.969 | 1.12
LOU-NH91 | 1.07 | 1.04 | 0.737 | 0.85 | 0.845

Cell Line | relative viability (0.08 µM) | relative viability (0.253 µM) | relative viability (0.8 µM) | relative viability (2.53 µM) | relative viability (8 µM)
LU99A | 0.985 | 0.952 | 0.958 | 0.847 | 0.849
LXF-289 | 0.949 | 0.984 | 1 | 1 | 1.06
NCI-H23 | 1.01 | 1.03 | 0.935 | 0.917 | 0.858
NCI-H322M | 1.04 | 1 | 0.928 | 0.785 | 0.779
NCI-H358 | 0.893 | 0.98 | 0.917 | 0.828 | 0.45
NCI-H441 | 1.11 | 1.07 | 1.1 | 0.939 | 0.789
NCI-H460 | 1.01 | 1.01 | 0.967 | 0.951 | 1.02
NCI-H520 | 1.01 | 1.05 | 1.08 | 0.943 | 1.01
NCI-H522 | 1.13 | 0.937 | 1.05 | 0.925 | 0.914
NCI-H596 | 1.09 | 0.938 | 0.878 | 0.987 | 0.866
NCI-H647 | 1.03 | 1.01 | 1.11 | 0.94 | 0.942
NCI-H650 | 1.03 | 0.972 | 1.13 | 0.955 | 1.15
NCI-H661 | 0.956 | 0.997 | 1.01 | 0.958 | 1.01
NCI-H727 | 1.03 | 0.966 | 0.843 | 0.904 | 0.656
NCI-H838 | 0.935 | 0.967 | 0.961 | 0.949 | 0.829
NCI-H1355 | 0.986 | 1.02 | 0.979 | 0.924 | 0.908
NCI-H1395 | 0.948 | 0.974 | 1.14 | 0.892 | 0.844
NCI-H1437 | 0.976 | 0.988 | 1.02 | 0.994 | 0.883
NCI-H1563 | 0.958 | 1 | 1.02 | 1.04 | 0.972
NCI-H1648 | 0.853 | 0.859 | 0.893 | 0.823 | 0.966
NCI-H1650 | 0.964 | 1.01 | 0.895 | 0.805 | 0.464
NCI-H1651 | 0.955 | 1.01 | 0.957 | 1.01 | 0.96
NCI-H1666 | 1.07 | 1 | 0.896 | 0.99 | 0.959
NCI-H1703 | 1.06 | 0.873 | 0.954 | 0.789 | 0.806
NCI-H1734 | 1.01 | 1.01 | 1.08 | 0.858 | 0.855
NCI-H1755 | 0.968 | 0.994 | 0.995 | 0.975 | 0.96

Cell Line | relative viability (0.08 µM) | relative viability (0.253 µM) | relative viability (0.8 µM) | relative viability (2.53 µM) | relative viability (8 µM)
NCI-H1792 | 0.987 | 0.919 | 0.856 | 0.908 | 1.01
NCI-H1793 | 1.04 | 0.865 | 0.617 | 0.787 | 0.606
NCI-H1915 | 1.02 | 0.971 | 0.982 | 1.07 | 0.935
NCI-H1944 | 1.07 | 0.972 | 0.919 | 1.02 | 0.974
NCI-H1975 | 0.989 | 0.97 | 0.966 | 1.03 | 0.965
NCI-H1993 | 0.971 | 0.916 | 0.815 | 0.81 | 0.724
NCI-H2009 | 0.988 | 1.06 | 1 | 0.982 | 0.856
NCI-H2023 | 0.915 | 0.997 | 1.15 | 0.926 | 0.94
NCI-H2085 | 1 | 1.04 | 0.865 | 0.973 | 0.777
NCI-H2087 | 0.957 | 1.03 | 0.94 | 1.06 | 0.786
NCI-H2126 | 1.01 | 1.03 | 0.978 | 0.925 | 0.975
NCI-H2170 | 1 | 0.995 | 0.979 | 0.935 | 1.01
NCI-H2228 | 1.03 | 1.02 | 1.02 | 0.903 | 0.808
NCI-H2342 | 1.02 | 0.971 | 0.958 | 0.965 | 1.1
NCI-H2347 | 1.04 | 1 | 1 | 0.989 | 0.582
NCI-H2405 | 1.03 | 1.02 | 0.977 | 0.958 | 0.821
NCI-H3122 | 0.967 | 1.02 | 1.01 | 0.919 | 0.95
PC-3 [JPC-3] | 1 | 1.06 | 0.916 | 1.03 | 0.859
PC-14 | 0.933 | 1.07 | 0.84 | 0.885 | 0.485
RERF-LC-KJ | 1.05 | 1.04 | 0.975 | 0.992 | 0.726
SK-LU-1 | 1.09 | 1 | 0.987 | 0.886 | 0.709
SK-MES-1 | 1.02 | 1.02 | 0.992 | 0.942 | 0.783
SW 900 | 1.02 | 0.873 | 0.777 | 0.848 | 0.624
SW 1573 | 1.07 | 0.899 | 1.04 | 0.924 | 0.689
UMC-11 | 0.975 | 0.981 | 1 | 0.918 | 0.857
